Laboratory results as given in patent US12172965B2, “Drug conjugate comprising quinoline derivatives” (UNIVERSITE PARIS-SACLAY, priority 2018, dated 2024).
pIC50: −log10 of the molar value. Read-outs that look alike come from different tables or passages of the source. Non-standard residues stand in square brackets, D forms with d. Residues, ends and D or L forms follow the SMILES beside them. *: point of attachment. Dolaproine = CO[C@@H]([C@@H]1CCCN1)[C@@H](C)C(=O)O; Dil = CC[C@H](C)[C@H](NC)[C@@H](CC(=O)O)OC; X1 = C[C@@H](N*)[C@@H](O)c1ccccc1; NMeV = CN[C@H](C(=O)O)C(C)C

Legend:
[1] = test system: K562R (chronic myeloid leukemia); assay: Antiproliferative activity (IC50), CellTiter Glo, K562R; type: cell-based
Text: (§1) The IC50 (as per accepted terminology) activities of the compounds according to the invention 4-((3-amino-4-methoxyphenyl)(methyl)amino) quinoline-2-carbonitrile (ICQN-1); 5-(5-((2-cyanoquinolin-4-yl)(methyl)amino)-2-methoxyphenyl)-N-hydroxypent-4-ynamide (ICQN-2); and (E)-3-(5-((2-cyanoquinolin-4-yl)(methyl)amino)-2-methoxyphenyl)-N-hydroxyacrylamide (ICQN-3) were compared with compounds of the prior art and with a commercial and clinical reference compound, in particular MMAE (monomethylauristatin E). The IC50 activities were measured on various different cancer cell lines HCT116 (colorectal tumour), A549 (non-small cell lung cancer), NCI-N87 (gastric tumour), Mia-Paca-2 (pancreatic tumour), K562R (chronic myeloid leukemia), SKOV3 (ovarian tumour), SKBr3 (breast tumour, Her2 overexpression), MCF7 (breast tumour) and MDA-MB231 (breast tumour).
(§2) The cancer cell lines were obtained from the American Culture Collection (ATCC, Rockville, MD) or from the German collection of microorganisms and cell cultures of the Leibniz Institute (DSMZ, Braunschweig-Germany) or from the European collection of cell cultures (ECACC, England). The cancer cell lines were cultured according to the supplier's instructions.
(§3) The A549 lung carcinoma cells, K562R myeloid leukemia cells, and the NCI-N87 gastric carcinoma cells were cultured in Gibco Roswell Park Memorial Institute (RPMI) 1640 medium supplemented with 10% foetal calf serum (FCS) and 1% glutamine. The Mia-Paca2 carcinoma cells were cultured in Gibco Dulbecco's Modified Eagle Medium (DMEM) supplemented with 10% foetal calf serum (FCS) and 1% glutamine.
(§4) The cells were counted using a Vi-cell XR (Beckman Coulter) and the cell viability was assessed by using 0.25% trypan blue dye exclusion assay. The cells were tested for the presence of mycoplasmas prior to the experiments with the Mycoplasma PCR detection kit (Applied Biological Materials Inc., Canada) according to the manufacturer's instructions, and only mycoplasma-free cells were used for the study. The cell lines were maintained at 37° C. in a humidified atmosphere containing 5% CO2.
(§5) After 24 hours of culturing, the cells were treated with the tested compounds at 10 different final concentrations. Each concentration was obtained from serial dilutions in culture medium starting from the stock solution. The control cells were treated with the carrier. The experiments were carried out in triplicate.
(§6) The measurements were performed after 72 hours of treatment using the CellTiter Glo assay (Promega) which makes it possible to measure through bioluminescence (quantification of adenosine triphosphate—ATP) the number of living cells, by using a PolarStar Omega microplate reader (BMG-Labtech).
(§7) The dose-response curves were plotted with the Graph Prism software application and the IC50 values were calculated using the Graph Prism software based on polynomial curves (four or five parameter logistic equations).
The K562R (chronic myeloid leukemia) cells have an MDR profile that allows them to be resistant to several chemotherapeutic compounds including the reference compound MMAE.

[2] = test system: SKOV3 (ovarian tumour); assay: Antiproliferative activity (IC50), CellTiter Glo, SKOV3; type: cell-based, human; details: for pIC50: free, unconjugated, 72 hours of treatment, read-out: SKOV3 IC50
Text: as §1, §2
(§8) The HCT-116 human colorectal carcinoma, SK-BR3 breast carcinoma, and SK-OV-3 ovarian carcinoma cells were cultured in Gibco McCoy's 5A medium supplemented with 10% foetal calf serum (FCS) and 1% glutamine.
as §4, §5, §6, §7

[3] = test system: NCI-N87 (gastric tumour); assay: Antiproliferative activity (IC50), CellTiter Glo, NCI-N87; type: cell-based; details: for pIC50: free, unconjugated, 72 hours of treatment, read-out: NIC-N87 IC50
Text: as §1, §2, §3, §4, §5, §6, §7

[4] = test system: Mia-Paca-2 (pancreatic tumour); assay: Antiproliferative activity (IC50), CellTiter Glo, Mia-Paca-2; type: cell-based; details: for pIC50: free, unconjugated, 72 hours of treatment, read-out: Mia-Paca-2 IC50
Text: as §1, §2, §3, §4, §5, §6, §7

[5] = test system: SKBr3 (breast tumour, Her2 overexpression); assay: Antiproliferative activity (IC50), CellTiter Glo, SKBr3; type: cell-based, human; details: for pIC50: free, unconjugated, 72 hours of treatment, read-out: SKBr3 IC50
Text: as §1, §2, §8, §4, §5, §6, §7

[6] = test system: MDA-MB231 (breast tumour); assay: Antiproliferative activity (IC50), CellTiter Glo, MDA-MB231; type: cell-based; details: free, unconjugated, 72 hours of treatment, read-out: MDA-MB231 CI50
Text: as §1, §2
(§9) The breast adenocarcinoma cells MDA-MB231 and MCF7 were cultured in Gibco RPMI 1640 culture medium supplemented with 10% foetal calf serum (FCS) and 1% glutamine.
as §4, §5, §6, §7

[7] = test system: MCF7 (breast tumour); assay: Antiproliferative activity (IC50), CellTiter Glo, MCF7; type: cell-based; details: free, unconjugated, 72 hours of treatment, read-out: MCF7 CI50
Text: as §1, §2, §9, §4, §5, §6, §7

[8] = test system: HCT116 cell line; details: comparison of molecules Ia and Ib; cited from earlier work
[9] = test system: A549 (non-small cell lung cancer); assay: Antiproliferative activity (IC50), CellTiter Glo, A549; type: cell-based; details: free, unconjugated; 72 hours of treatment; read-out: A549 IC50
Text: as §1, §2, §3, §4, §5, §6, §7

[10] = test system: HCT116 (colorectal tumour); assay: Antiproliferative activity (IC50), CellTiter Glo, HCT116; type: cell-based, human; details: free, unconjugated; 72 hours of treatment; read-out: HCT116 IC50
Text: as §1, §2, §8, §4, §5, §6, §7

[11] = Homo sapiens, K-562R, free, unconjugated, 72 hours of treatment, read-out: K562R IC50

Work on `CCOc1ccc(N(C)c2cc(C#N)nc3ccccc23)cc1N` [ICQN-2, 4-((3-amino-4-ethoxyphenyl)(methyl)amino)quinoline-2-carbonitrile] yielded a pIC50 [1, 11] of 9.44, an IC50 ([1]; Homo sapiens, K-562R, nM given only in VB118 cells, read-out: K562R (antiproliferative activity, Table 6)) of 0.36 nM and a pIC50 ([2]; Homo sapiens, SK-OV-3) of 9.23. It also gave an IC50 ([2]; Homo sapiens, SK-OV-3, nM given only in VB118 cells, read-out: SKOV-3 (antiproliferative activity, Table 6)) of 0.59 nM, a pIC50 ([3]; Homo sapiens, NCI-N87) of 9.03 and an IC50 ([3]; Homo sapiens, NCI-N87, nM given only in VB118 cells, read-out: NCI-N87 (antiproliferative activity, Table 6)) of 0.93 nM. For the same molecule, the pIC50 ([4]; Homo sapiens, MIA PaCa-2) was 9.54, the IC50 ([4]; Homo sapiens, MIA PaCa-2, nM given only in VB118 cells, read-out: Mia-Paca-2 (antiproliferative activity, Table 6)) was 0.29 nM and the pIC50 ([5]; Homo sapiens, SK-BR-3) was 9.42. It also gave an IC50 ([5]; Homo sapiens, SK-BR-3, nM given only in VB118 cells, read-out: SKBR3 (antiproliferative activity, Table 6)) of 0.38 nM.
`COc1ccc(N(C)c2cc(C#N)nc3ccccc23)cc1/C=C/C(=O)NO` [ICQN-3, (E)-3-(5-((2-cyanoquinolin-4-yl)(methyl)amino)-2-methoxyphenyl)-N-hydroxyacrylamide] showed a pIC50 [1, 11] of 9.25, a pIC50 ([6]; Homo sapiens, MDA-MB-231) of 9.36 and a pIC50 ([2]; Homo sapiens, SK-OV-3) of 8.58. For the same molecule, the pIC50 ([3]; Homo sapiens, NCI-N87) was 10.00, the pIC50 ([4]; Homo sapiens, MIA PaCa-2) was 9.03 and the pIC50 ([5]; Homo sapiens, SK-BR-3) was 8.75. For the same molecule, the pIC50 ([7]; Homo sapiens, MCF7) was 9.11.
In the case of `C=C(c1ccc(OC)c(N)c1)c1cc(C)nc2ccccc12` [ICQO-1, reference compound], the pIC50 ([1]; Homo sapiens, K-562R, resistant cancer cells, MDR profile, read-out: K562R (PgP+) IC50) was 8.70 and the “Ratio vs MMAE, K562R (PgP+)” value ([1]; resistant cancer cells, MDR profile) was 17.
For `CN(c1ccc2c(c1)c1ccccc1n2C)c1cc(C#N)nc2ccccc12` [Ib], the “drop in cytotoxic activity (factor) on replacing Me by CN at position 2 of quinoline” value [8] is given as 170.
`CC[C@H](C)[C@@H]([C@@H](CC(=O)N1CCC[C@H]1[C@H](OC)[C@@H](C)C(=O)N[C@H](C)[C@@H](O)c1ccccc1)OC)N(C)C(=O)[C@@H](NC(=O)[C@@H](NC)C(C)C)C(C)C` [MMAE, monomethylauristatin E, reference compound] (H-[NMeV]V[Dil][Dolaproine]-X1) showed a pIC50 ([1]; free, unconjugated, 72 hours of treatment, read-out: K562R IC50) of 7.71, a pIC50 ([1]; resistant cancer cells, MDR profile, read-out: K562R (PgP+) IC50) of 7.46 and a pIC50 [6] of 8.90. It also gave a pIC50 [9] of 8.39, a pIC50 [2] of 10.10 and a pIC50 [3] of 8.18. It also gave a pIC50 [10] of 8.82, a pIC50 [4] of 8.52 and a pIC50 [5] of 10.22. The pIC50 [7] was 9.24.
